Laboratory results taken from patent publication US9624213B2 (Plexxikon Inc., priority 2011, dated 2017).

How the values were obtained:
COLO205 = COLO205 cell growth inhibitory activity (ATPlite); assay type: cell-based; conditions: Homo sapiens, COLO 205, 72 h; COLO205 cells, growth inhibition, 3 days
Experimental: (§1) Compounds are assessed in a variety of cell based assays. For example human cell lines with B-Raf V600E mutation (A375 melanoma, SKMEL3 melanoma, and COLO205 colon adenocarcinoma), as well as tumorigenic cell lines with wild-type B-RAF (SW620 colon adenocarcinoma) or with Ras mutations (SKMEL2 melanoma and IPC298 melanoma). Similar assays may be used to assess additional tumorigenic cell lines with Ras mutations, including, but not limited to, M202, M207, M243, M244, M296, S117, HCT116, HCT15, DLD1, MiaPaCa, A549, NCI-H23, NCI-H460, HOP62, MDA-MB231, Hs-578T, HL60, MOLT-4, and CCRF-CEM.
(§2) On day 1, cells are counted, then centrifuged in a conical tube for 5 minutes at 1000 rpm. The supernatant is removed and cells are re-suspended as follows: • SW620 (ATCC catalog #CCL-27): resuspend in Leibovitz's L-15 medium, 2 mM L-glutamine, 10% fetal bovine serum to 6×10^4 cells/mL. • A375 (ATCC catalog #CRL-1619): resuspend in Dulbecco's modified Eagle's medium, 4 mM L-glutamine, 4.5 g/L D-glucose, 10% fetal bovine serum to 6×10^4 cells/mL. • COLO205 (ATCC catalog #CCL-222): resuspend in RPMI 1640, 2 mM L-glutamine, 1.5 g/L sodium bicarbonate, 4.5 g/L D-glucose, 10 mM HEPES, 1.0 mM sodium pyruvate, 10% fetal bovine serum to 6×10^4 cells/mL. • SKMEL2 (ATCC catalog #HTB-68): resuspend in Minimum Eagle essential medium, 2 mM L-glutamine, 1.5 g/L sodium bicarbonate, 0.1 mM non-essential amino acids, 1.0 mM sodium pyruvate, 10% fetal bovine serum to 6×10^4 cells/mL. • SKMEL3 (ATCC catalog #HTB-69): resuspend in McCoy's 5A medium, 1.5 mM L-glutamine, 15% fetal bovine serum to 6×10^4 cells/mL. • IPC298 (DSMZ catalog #ACC 251): resuspend in RPMI 1640, 2 mM L-glutamine, 10% fetal bovine serum to 6×10^4 cells/mL.
(§3) The cells are plated, 50 μL in each well of a 96-well dish (Corning 3610) and incubated at 37° C. in 5% CO2 overnight, cells plated to a final concentration of cells as follows: • SW620: 5,000 cells per well. • A375: 2,000 cells per well. • COLO205: 2,000 cells per well. • SKMEL2: 2,000 cells per well. • SKMEL3: 3,000 cells per well. • IPC298: 2,000 cells per well.
(§4) On day 2, compound at a maximum concentration of 5 mM is serially diluted 1:3 (e.g. 10 μL with 30 μL dimethyl sulfoxide) for a total of 8 point titration with DMSO as a control. A 1 μL aliquot of each dilution point and control is added to 249 μL growth media and 50 μL is added to a well containing cells, providing 10 μM compound at the maximum concentration point. The cells are incubated for 3 days at 37° C. in 5% CO2.
(§5) On day 5, ATPlite 1 step Luminescence Assay System (Perkin Elmer #6016739) is brought to room temperature along with the cell cultures. ATPlite is added 25 μL to each well, shake for 2 minutes, and the cells are incubated at room temperature for 10 minutes, then luminescence is read on Satire reader. The measured luminescence correlates directly with cell number, such that the reading as a function of compound concentration is used to determine the IC50 value.

A375 = experiment: A375_P-ERK / A375 cell activity; assay type: cell-based; conditions: Homo sapiens, A-375; A375 cells (A375_P-ERK)
Experimental: as §1, §2, §3, §4, §5

| SMILES | IC50 (COLO205) | IC50 (A375) |
| --- | --- | --- |
| COc1ncc(-c2cnc3[nH]cc(C(=O)c4cccc(NS(=O)(=O)C5CC5)c4F)c3c2)cn1 [Compound P-0067, N-[2-fluoro-3-[5-(2-methoxypyrimidin-5-yl)-1H-pyrrolo[2,3-b]pyridine-3-carbonyl]phenyl]cyclopropanesulfonamide] | > 1 µM | < 1 µM |
| COc1ncc(-c2cnc3[nH]cc(C(=O)c4cccc(NS(=O)(=O)N(C)C(C)C)c4F)c3c2)cn1 [Compound P-0075, 3-[2-fluoro-3-[[isopropyl(methyl)sulfamoyl]amino]benzoyl]-5-(2-methoxypyrimidin-5-yl)-1H-pyrrolo[2,3-b]pyridine] | > 1 µM | < 1 µM |
| CCN(C)S(=O)(=O)Nc1cccc(C(=O)c2c[nH]c3ncc(-c4cnc(N5CCCC5)nc4)cc23)c1F [Compound P-0108, 3-[3-[[ethyl(methyl)sulfamoyl]amino]-2-fluoro-benzoyl]-5-(2-pyrrolidin-1-ylpyrimidin-5-yl)-1H-pyrrolo[2,3-b]pyridine] | > 1 µM | < 1 µM |
| CCOc1cnc(-c2cnc3[nH]cc(C(=O)c4c(F)ccc(NS(=O)(=O)N(C)C)c4F)c3c2)cn1 [Compound P-0244, 3-[3-(dimethylsulfamoylamino)-2,6-difluoro-benzoyl]-5-(5-ethoxypyrazin-2-yl)-1H-pyrrolo[2,3-b]pyridine] | > 1 µM | > 1 µM |
| COC(=O)C1(c2ccc(-c3cnc4[nH]cc(C(=O)c5cccc(NS(=O)(=O)N6CCCC6)c5F)c4c3)cc2)CC1 [Compound P-0254, methyl 1-[4-[3-[2-fluoro-3-(pyrrolidin-1-ylsulfonylamino)benzoyl]-1H-pyrrolo[2,3-b]pyridin-5-yl]phenyl]cyclopropanecarboxylate] | < 1 µM | < 1 µM |
| CN(C)S(=O)(=O)Nc1ccc(F)c(C(=O)c2c[nH]c3ncc(-c4ccc(C(C)(C)C#N)cc4)cc23)c1F [Compound P-0255] | < 1 µM | < 1 µM |
| CCN(C)S(=O)(=O)Nc1ccc(F)c(C(=O)c2c[nH]c3ncc(-c4cnc(N5CCN(C(=O)OC(C)(C)C)CC5)nc4)cc23)c1F [Compound P-0264, tert-butyl 4-[5-[3-[3-[[ethyl(methyl)sulfamoyl]amino]-2,6-difluoro-benzoyl]-1H-pyrrolo[2,3-b]pyridin-5-yl]pyrimidin-2-yl]piperazine-1-carboxylate] | < 1 µM | < 1 µM |
| O=C(c1c(F)ccc(NS(=O)(=O)N2CCCC2)c1F)c1c[nH]c2ncc(-c3cnc(N4CCOCC4)nc3)cc12 [Compound P-0266, N-[2,4-difluoro-3-[5-(2-morpholinopyrimidin-5-yl)-1H-pyrrolo[2,3-b]pyridine-3-carbonyl]phenyl]pyrrolidine-1-sulfonamide] | < 1 µM | < 1 µM |

More lines, now with the values ahead:

| IC50 (COLO205) | IC50 (A375) | SMILES |
| --- | --- | --- |
| < 1 µM | < 1 µM | CCN(C)S(=O)(=O)Nc1cccc(C(=O)c2c[nH]c3ncc(-c4ccc(C5(C#N)CC5)cc4)cc23)c1F [Compound P-0061, 5-[4-(1-cyanocyclopropyl)phenyl]-3-[3-[[ethyl(methyl)sulfamoyl]amino]-2-fluoro-benzoyl]-1H-pyrrolo[2,3-b]pyridine] |
| < 1 µM | < 1 µM | COC(=O)CCS(=O)(=O)Nc1cccc(C(=O)c2c[nH]c3ncc(-c4cnc(OC)nc4)cc23)c1F [Compound P-0066, methyl 3-[[2-fluoro-3-[5-(2-methoxypyrimidin-5-yl)-1H-pyrrolo[2,3-b]pyridine-3-carbonyl]phenyl]sulfamoyl]propanoate] |
| < 1 µM | < 1 µM | CCCN(C)S(=O)(=O)Nc1ccc(F)c(C(=O)c2c[nH]c3ncc(-c4ccc(C5(C#N)CC5)cc4)cc23)c1F [Compound P-0079, 5-[4-(1-cyanocyclopropyl)phenyl]-3-[2,6-difluoro-3-[[methyl(propyl)sulfamoyl]amino]benzoyl]-1H-pyrrolo[2,3-b]pyridine] |
| < 1 µM | < 1 µM | CCCN(C)S(=O)(=O)Nc1cccc(C(=O)c2c[nH]c3ncc(-c4cnc(NC5CC5)nc4)cc23)c1F [Compound P-0082, 5-[2-(cyclopropylamino)pyrimidin-5-yl]-3-[2-fluoro-3-[[methyl(propyl)sulfamoyl]amino]benzoyl]-1H-pyrrolo[2,3-b]pyridine] |
| < 1 µM | < 1 µM | COc1ncc(-c2cnc3[nH]cc(C(=O)c4cccc(NS(=O)(=O)N(C)CC5CC5)c4F)c3c2)cn1 [Compound P-0083, 3-[3-[[cyclopropylmethyl(methyl)sulfamoyl]amino]-2-fluoro-benzoyl]-5-(2-methoxypyrimidin-5-yl)-1H-pyrrolo[2,3-b]pyridine] |
| < 1 µM | < 1 µM | CCCN(C)S(=O)(=O)Nc1cccc(C(=O)c2c[nH]c3ncc(-c4cnc(C5CC5)nc4)cc23)c1F [Compound P-0086, 5-(2-cyclopropylpyrimidin-5-yl)-3-[2-fluoro-3-[[methyl(propyl)sulfamoyl]amino]benzoyl]-1H-pyrrolo[2,3-b]pyridine] |
| < 1 µM | < 1 µM | CCN(C)S(=O)(=O)Nc1cccc(C(=O)c2c[nH]c3ncc(-c4ccc(C5CC5)nc4)cc23)c1F [Compound P-0087, 5-(6-cyclopropyl-3-pyridyl)-3-[3-[[ethyl(methyl)sulfamoyl]amino]-2-fluoro-benzoyl]-1H-pyrrolo[2,3-b]pyridine] |
| < 1 µM | < 1 µM | N#Cc1ncc(-c2cnc3[nH]cc(C(=O)c4cccc(NS(=O)(=O)N5CCCC5)c4F)c3c2)cn1 [Compound P-0091, N-[3-[5-(2-cyanopyrimidin-5-yl)-1H-pyrrolo[2,3-b]pyridine-3-carbonyl]-2-fluoro-phenyl]pyrrolidine-1-sulfonamide] |
| < 1 µM | < 1 µM | CN(C)S(=O)(=O)Nc1cccc(C(=O)c2c[nH]c3ncc(-c4cnc(C#N)nc4)cc23)c1F [Compound P-0096, 5-(2-cyanopyrimidin-5-yl)-3-[3-(dimethylsulfamoylamino)-2-fluoro-benzoyl]-1H-pyrrolo[2,3-b]pyridine] |
| < 1 µM | < 1 µM | CN(C)S(=O)(=O)Nc1cccc(C(=O)c2c[nH]c3ncc(-c4ccc(C(C)(C)O)cc4)cc23)c1F [Compound P-0103, 3-[3-(dimethylsulfamoylamino)-2-fluoro-benzoyl]-5-[4-(1-hydroxy-1-methyl-ethyl)phenyl]-1H-pyrrolo[2,3-b]pyridine] |
| < 1 µM | < 1 µM | CC(C)(O)c1ccc(-c2cnc3[nH]cc(C(=O)c4cccc(NS(=O)(=O)N5CCCC5)c4F)c3c2)cc1 [Compound P-0105, N-[2-fluoro-3-[5-[4-(1-hydroxy-1-methyl-ethyl)phenyl]-1H-pyrrolo[2,3-b]pyridine-3-carbonyl]phenyl]pyrrolidine-1-sulfonamide] |
| < 1 µM | < 1 µM | O=C(c1cccc(NS(=O)(=O)N2CCCC2)c1F)c1c[nH]c2ncc(-c3cnc(NC4CC4)nc3)cc12 [Compound P-0232, N-[3-[5-[2-(cyclopropylamino)pyrimidin-5-yl]-1H-pyrrolo[2,3-b]pyridine-3-carbonyl]-2-fluoro-phenyl]pyrrolidine-1-sulfonamide] |
| < 1 µM | < 1 µM | CN(C)S(=O)(=O)Nc1cccc(C(=O)c2c[nH]c3ncc(-c4ccc(C(C)(C)C#N)cc4)cc23)c1F [Compound P-0245, 5-[4-(1-cyano-1-methyl-ethyl)phenyl]-3-[3-(dimethylsulfamoylamino)-2-fluoro-benzoyl]-1H-pyrrolo[2,3-b]pyridine] |
